The values that follow come from ChEMBL document CHEMBL1146077, “Synthesis and evaluation of heteroaryl-substituted dihydronaphthalenes and indenes: potent and selective inhibitors of aldosterone synthase (CYP11B2) for the treatment of congestive heart failure and myocardial fibrosis” (J Med Chem, 2006).

SMILES strings stand for the structures.

One may read the inhibition as the change of the read-out against control, counted positive when it falls. A low value points to a response near the control. A word on the Papp: it is a coefficient for how fast a substance crosses the barrier. A higher Papp goes with fast passage. As a reminder, the half-life is the time in which the quantity being followed falls by half. A high value points to slow decline. As a reminder, the IC50 is the concentration that inhibits the measured activity by half. A lower IC50 goes with greater potency.

The first data set deals with T1, Cytochrome P450 11B2, mitochondrial (Homo sapiens, UniProt P19099).
T1 sequence (P19099 whole entry): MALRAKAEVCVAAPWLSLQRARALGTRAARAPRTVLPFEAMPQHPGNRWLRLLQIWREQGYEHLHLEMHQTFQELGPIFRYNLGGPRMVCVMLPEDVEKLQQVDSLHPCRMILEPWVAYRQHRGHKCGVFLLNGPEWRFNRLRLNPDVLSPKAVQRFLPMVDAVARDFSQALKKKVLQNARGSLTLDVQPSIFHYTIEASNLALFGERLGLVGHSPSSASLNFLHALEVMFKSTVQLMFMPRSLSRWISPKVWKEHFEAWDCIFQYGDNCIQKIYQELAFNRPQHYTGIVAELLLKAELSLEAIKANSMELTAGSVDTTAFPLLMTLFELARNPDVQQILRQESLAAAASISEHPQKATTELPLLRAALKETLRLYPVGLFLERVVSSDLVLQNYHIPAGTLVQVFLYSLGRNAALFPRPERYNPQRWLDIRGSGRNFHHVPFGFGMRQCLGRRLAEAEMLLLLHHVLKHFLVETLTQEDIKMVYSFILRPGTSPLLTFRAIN
The data set can be described thus: Inhibition of human CYP11B2 expressed in Schizosaccharomyces pombe at 500 nM.
Conditions: not given
As to `CCC1CC(c2cccnc2)=Cc2ccccc21` (stereo not given), the inhibition at 0.5 µM is 20%.
`C(=C/c1cccnc1)/c1ccccc1` yielded an inhibition at 0.5 µM of 54%.
As for `COc1ccc2c(c1)CCC(c1cccnc1)=C2`, the inhibition at 0.5 µM came out at 98%.
The same measure, in the same setting: the same measure for `C(=C\c1cccnc1)/c1ccccc1`: 25%; for `C1=C(n2ccnc2)Cc2ccccc21`: 33%.
Compound `COc1ccc2c(c1)CCC(c1ccncc1)=C2` showed an inhibition at 0.5 µM of 15%.

System in the next data set: not listed separately
The data set can be described thus: Permeability in Caco-2 cell. The settings on record: human.
On to `COc1ccc2c(c1)CCC(c1cccnc1)=C2`, for which the Papp was 13.5 ×10⁻⁶ cm/s.
`CC(C(=O)O)c1cccc(C(=O)c2ccccc2)c1` (stereo not given) [KETOPROFEN] returned a Papp of 25.7 ×10⁻⁶ cm/s.
As to `C[C@]12CC[C@H]3[C@@H](CCC4=CC(=O)CC[C@@]43C)[C@@H]1CC[C@@H]2O` [TESTOSTERONE], the Papp turned out to be 9.4 ×10⁻⁶ cm/s.

System in the next data set: not listed separately
Briefly: Half life in rat liver microsome. The data set is classed as ADME. The settings on record: liver microsomes. In general terms: Liver microsomes are a subcellular fraction often used to study metabolism.
In the case of `COc1ccc2c(c1)CCC(c1cccnc1)=C2`, the half-life was 1.12 h.

A further data set addresses T1, Cytochrome P450 11B2, mitochondrial. The data set can be described thus: Inhibition of human CYP11B2 expressed in V79 11B2 cells.
Conditions: not given
Compound `CCC1CC(c2cccnc2)=Cc2ccccc21` (stereo not given) showed an IC50 of 176 nM.
For the compound `C(=C/c1cccnc1)/c1ccccc1`, inhibition was half-maximal at 735 nM (IC50).
Same read-out and setting: the same measure for `COc1ccc2c(c1)C=C(c1cccnc1)CC2`: 45 nM; for `COc1ccc2c(c1)CCC(n1ccnc1)=C2`: 411 nM.
In turn, `C1=C(n2ccnc2)CCc2ccccc21` returned an IC50 of 334 nM.
Regarding `C1=C(n2ccnc2)Cc2ccccc21`, the IC50 was 448 nM.
Same read-out and setting: the same measure for `COc1ccc2c(c1)CCC(c1ccncc1)=C2`: 2830 nM.

The next data set concerns the target T2, Cytochrome P450 11B1, mitochondrial (Homo sapiens, UniProt P15538).
T2 sequence (P15538 whole entry): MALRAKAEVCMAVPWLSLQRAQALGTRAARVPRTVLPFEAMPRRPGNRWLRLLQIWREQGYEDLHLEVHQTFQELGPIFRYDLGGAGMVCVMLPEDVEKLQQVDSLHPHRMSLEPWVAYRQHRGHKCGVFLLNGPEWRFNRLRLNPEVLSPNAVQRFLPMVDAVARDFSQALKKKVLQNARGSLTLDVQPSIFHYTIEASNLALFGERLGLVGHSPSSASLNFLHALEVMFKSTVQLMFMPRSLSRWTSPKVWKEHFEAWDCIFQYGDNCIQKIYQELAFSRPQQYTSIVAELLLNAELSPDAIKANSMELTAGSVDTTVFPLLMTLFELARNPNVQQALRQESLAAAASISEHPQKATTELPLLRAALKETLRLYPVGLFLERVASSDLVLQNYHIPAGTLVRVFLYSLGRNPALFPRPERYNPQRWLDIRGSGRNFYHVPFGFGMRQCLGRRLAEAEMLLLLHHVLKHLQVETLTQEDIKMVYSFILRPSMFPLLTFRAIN
The data set can be described thus: Inhibition of human CYP11B1 expressed in V79 11B1 cells.
Conditions: not given
Compound `CCC1CC(c2cccnc2)=Cc2ccccc21` (stereo not given) gave an IC50 of 1620 nM.
With `C(=C/c1cccnc1)/c1ccccc1`, the IC50 was 288 nM.
Compound `COc1ccc2c(c1)CCC(c1ccncc1)=C2` yielded an IC50 of 2530 nM.
